Among the test systems are A498; CAKI-1; CCRF-CEM; COLO 205; DU-145; HCT-15; HT-29; K562; MCF7; MOLT-4; NCI-H226; NCI/ADR-RES; OVCAR-4; SF-295; SK-MEL-2; SK-MEL-5; SK-OV-3; SNB-19; UACC-62; UO-31.
What all share (test): DTP human tumour cell line panel, 48 h

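Cultured in 96-well plates, cells were exposed to test compound for 48 hours across five concentrations. GI50 = concentration required for 50% inhibition of growth.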 The source made the active and inactive calls. No stated cut-off is given here; in the data, active = GI50 up to about 1.1 µM and inactive = higher.

`C=C(C=O)c1c2c(nc3ccccc13)C(=O)c1ccccc1C2=O`: the GI50 in the assay on A498 was 1.46 µM (inactive); in the assay on CAKI-1, 0.52 µM (active); in the assay on CCRF-CEM it was 0.191 µM (active); in the assay on COLO 205, 1.1 µM (active); with DU-145, 0.286 µM (active); with HCT-15, 0.298 µM. The GI50 is 0.47 µM (active) with HT-29; 0.391 µM (active) with K562; 0.429 µM (active) with MCF7; 0.282 µM (active) in the assay on MOLT-4; 0.966 µM (active) in the assay with NCI-H226; 0.265 µM (active) in the assay with NCI/ADR-RES. Moreover, the GI50 was 1.77 µM (inactive) in the assay with OVCAR-4; 1.29 µM (inactive) with SF-295; 1.37 µM (inactive) with SK-MEL-2; 0.162 µM (active) with SK-MEL-5; 2.9 µM (inactive) in the assay on SK-OV-3; 1.64 µM (inactive) with SNB-19. Moreover, the GI50 with UACC-62 is 0.918 µM (active); with UO-31, 1.11 µM (active).
As to `Cc1c(C)c(C)c(-n2c(=O)n(C)c(=O)n2-c2cc(C(C)(C)C)cc(C(C)(C)C)c2O)c(C)c1C`, the GI50 with A498 was 13.1 µM (inactive); in the assay with CAKI-1, 11.7 µM (inactive); in the assay on CCRF-CEM, 8.13 µM (inactive); with COLO 205 it was 7.19 µM (inactive); in the assay on DU-145, 12.7 µM (inactive); in the assay on HCT-15, 8.43 µM. Further, the GI50 in the assay with HT-29 is 3.64 µM (inactive); in the assay on K562 it was 6.21 µM (inactive); in the assay with MCF7, 4.06 µM (inactive); in the assay with MOLT-4, 4.18 µM (inactive); in the assay on NCI-H226, 8.32 µM (inactive); with NCI/ADR-RES, 8.38 µM (inactive). Also, the GI50 is 7.28 µM (inactive) with OVCAR-4; 8.99 µM (inactive) in the assay with SF-295; 6.47 µM (inactive) in the assay with SK-MEL-2; 6.21 µM (inactive) in the assay on SK-MEL-5; 12.4 µM (inactive) in the assay with SK-OV-3; 5.74 µM (inactive) in the assay on SNB-19. Moreover, the GI50 with UACC-62 is 11.1 µM (inactive); in the assay on UO-31 it was 3.08 µM (inactive).
With `COc1ccc(/C=C2\N/C(=N\N=C/C(O)C(O)C(O)C(O)CO)NC2=O)cc1` (stereo unspecified), the GI50 is 26.9 µM (inactive) in the assay on A498; > 100 µM (inactive) in the assay on CAKI-1; 38.1 µM (inactive) in the assay with CCRF-CEM; 44.6 µM (inactive) in the assay with COLO 205; 30.4 µM (inactive) with DU-145; over 100 µM in the assay with HCT-15. Moreover, the GI50 with HT-29 is 71.8 µM (inactive); with K562, 62.8 µM (inactive); with MCF7, 23.1 µM (inactive); in the assay with MOLT-4 it was 8.63 µM (inactive); with NCI-H226, 39.3 µM (inactive); with NCI/ADR-RES, > 100 µM (inactive). The GI50 in the assay on OVCAR-4 was 24 µM (inactive); with SF-295 it was 40.5 µM (inactive); in the assay on SK-MEL-2 it was 17.8 µM (inactive); with SK-MEL-5, 47.3 µM (inactive); in the assay on SK-OV-3 it was 24.9 µM (inactive); with UO-31, 91 µM (inactive).
`CC1=C[C@H]([C@H]2C=C(C)C(C(N)=O)=CN2Cc2c(Cl)cccc2Cl)N(Cc2c(Cl)cccc2Cl)C=C1C(N)=O`: the GI50 in the assay on A498 is 55.3 µM (inactive); in the assay with CAKI-1, > 75 µM (inactive); in the assay with CCRF-CEM it was 45.4 µM (inactive); with COLO 205, > 75 µM (inactive); with DU-145 it was > 75 µM (inactive); in the assay with HCT-15, over 75 µM. The GI50 in the assay with HT-29, in the assay with K562, with MCF7, in the assay on MOLT-4, in the assay with NCI-H226 and in the assay on NCI/ADR-RES was > 75 µM (inactive) each time. The GI50 in the assay on OVCAR-4 was 55.5 µM (inactive); with SF-295, > 75 µM (inactive); in the assay with SK-MEL-2, > 75 µM (inactive); in the assay with SK-MEL-5, > 75 µM (inactive); with SK-OV-3 it was > 75 µM (inactive); with SNB-19, > 75 µM (inactive). In addition, the GI50 in the assay with UACC-62 and with UO-31 was > 75 µM (inactive) in each case.
On to `CC(C)(Br)C(Br)CC/C(=C/CBr)CBr.CC(C)(Br)C(Br)CC/C(=C\CBr)CBr` (stereo unspecified), for which the GI50 with A498 was 20.9 µM (inactive); with CAKI-1, 9.91 µM (inactive); in the assay with CCRF-CEM, 0.91 µM (active); in the assay with COLO 205, 3.27 µM (inactive); in the assay with DU-145, 10.5 µM (inactive); with HCT-15 it was 2.51 µM. The GI50 was 3.02 µM (inactive) with HT-29; 2.24 µM (inactive) in the assay on K562; 3.29 µM (inactive) in the assay on MCF7; 2.1 µM (inactive) in the assay with MOLT-4; 14.2 µM (inactive) with NCI-H226; 3.11 µM (inactive) with NCI/ADR-RES. Besides, the GI50 is 5.2 µM (inactive) with OVCAR-4; 3.46 µM (inactive) in the assay with SF-295; 3.19 µM (inactive) in the assay with SK-MEL-2; 4.5 µM (inactive) in the assay on SK-MEL-5; 21.4 µM (inactive) in the assay with SK-OV-3; 14.4 µM (inactive) with SNB-19. Besides, the GI50 in the assay on UACC-62 was 2.05 µM (inactive); with UO-31 it was 14.3 µM (inactive).
Turning to `CCCCC1Cc2ccccc2-c2n1c1ccccc1[n+]2C` (stereo unspecified), the GI50 in the assay on A498 is 23.6 µM (inactive); in the assay on CAKI-1, > 100 µM (inactive); in the assay on CCRF-CEM, 10.9 µM (inactive); in the assay on DU-145, 33.7 µM (inactive); with HCT-15, 95.5 µM; in the assay with HT-29 it was 10 µM (inactive). Moreover, the GI50 was 2.49 µM (inactive) in the assay with K562; 8.77 µM (inactive) in the assay on MCF7; 12.3 µM (inactive) in the assay with MOLT-4; 22.3 µM (inactive) in the assay with NCI-H226; > 100 µM (inactive) in the assay with NCI/ADR-RES; 24.5 µM (inactive) in the assay with OVCAR-4. The GI50 in the assay on SF-295 was 6.92 µM (inactive); with SK-MEL-2, 8.53 µM (inactive); with SK-MEL-5, 4.54 µM (inactive); in the assay with SK-OV-3 it was 35.9 µM (inactive); in the assay on UO-31 it was 66.7 µM (inactive).
Take `C/C(=N\O)c1ccc(Nc2nc3ccccc3c3occc23)cc1`: the GI50 in the assay with A498 is 8.41 µM (inactive); with CAKI-1 it was 3.15 µM (inactive); in the assay with CCRF-CEM it was 4 µM (inactive); with COLO 205 it was 4.66 µM (inactive); with DU-145, 9.57 µM (inactive); in the assay on HCT-15, 2.55 µM. For the same molecule, the GI50 with HT-29 was 1.15 µM (inactive); with K562, 2.19 µM (inactive); in the assay on MCF7 it was 3.42 µM (inactive); in the assay with MOLT-4, 3 µM (inactive); with NCI-H226, 2.33 µM (inactive); in the assay with NCI/ADR-RES it was 6.76 µM (inactive). Moreover, the GI50 with SF-295 was 3.4 µM (inactive); in the assay on SK-MEL-2, 12.6 µM (inactive); in the assay on SK-MEL-5 it was 8.51 µM (inactive); in the assay on SK-OV-3, 18.6 µM (inactive); in the assay on SNB-19, 16.1 µM (inactive); with UACC-62, 14.7 µM (inactive). Further, in the assay on UO-31, the GI50 was 15.9 µM (inactive).
Turning to `COc1ccc(/C=C(/C#N)C(N)=O)cc1OC`, the GI50 with A498 is 72.6 µM (inactive); in the assay on CAKI-1, > 100 µM (inactive); in the assay with CCRF-CEM it was 42.1 µM (inactive); in the assay on COLO 205 it was > 100 µM (inactive); in the assay with DU-145, > 100 µM (inactive); in the assay on HCT-15 it was over 100 µM. For the same molecule, the GI50 in the assay on HT-29, in the assay on K562, in the assay with MCF7, in the assay on MOLT-4, in the assay on NCI-H226 and in the assay on NCI/ADR-RES was > 100 µM (inactive) throughout. Further, the GI50 with OVCAR-4, in the assay on SF-295, in the assay with SK-MEL-2, in the assay with SK-MEL-5, in the assay on SK-OV-3 and in the assay on SNB-19 was > 100 µM (inactive) each time. For the same molecule, the GI50 in the assay with UACC-62 is > 100 µM (inactive).
Turning to `COc1ccc2oc(=O)c(CC=C(C)C)c(O)c2c1C`, the GI50 with A498 is > 100 µM (inactive); in the assay with CAKI-1, > 100 µM (inactive); in the assay on CCRF-CEM, > 100 µM (inactive); in the assay with COLO 205, > 100 µM (inactive); in the assay on DU-145, > 100 µM (inactive); in the assay on HCT-15, over 100 µM. Also, the GI50 is > 100 µM (inactive) in the assay on HT-29; > 100 µM (inactive) in the assay on K562; > 100 µM (inactive) in the assay with MCF7; 36.4 µM (inactive) in the assay with MOLT-4; > 100 µM (inactive) in the assay on NCI-H226; > 100 µM (inactive) in the assay with NCI/ADR-RES. The GI50 in the assay with SF-295, in the assay on SK-MEL-2, with SK-MEL-5, in the assay with SK-OV-3, with SNB-19 and in the assay with UACC-62 was > 100 µM (inactive) throughout. Moreover, in the assay with UO-31, the GI50 was > 100 µM (inactive).
Regarding `CC(=O)c1c2c(cc3c1CC1(Cc4cc5c(cc4C1)C(=O)CCC5)C3)CCCC2` (stereo unspecified), the GI50 is 0.822 µM (active) in the assay on A498; 7.73 µM (inactive) in the assay with CAKI-1; 1.77 µM (inactive) in the assay on CCRF-CEM; 4.86 µM (inactive) in the assay on COLO 205; 20.9 µM (inactive) in the assay with DU-145; 3.94 µM with HCT-15. The GI50 is 3.25 µM (inactive) in the assay with HT-29; 1.76 µM (inactive) with K562; 4.49 µM (inactive) with MCF7; 2.59 µM (inactive) with MOLT-4; 3.5 µM (inactive) in the assay on NCI-H226; 5 µM (inactive) with NCI/ADR-RES. The GI50 in the assay with OVCAR-4 was 5.83 µM (inactive); with SF-295, 8.24 µM (inactive); with SK-MEL-2, 2.88 µM (inactive); in the assay on SK-MEL-5 it was 2.21 µM (inactive); in the assay with SK-OV-3, > 54.8 µM (inactive); in the assay with SNB-19, 13.8 µM (inactive). Besides, the GI50 in the assay with UO-31 is 9.4 µM (inactive).

Broadly, the GI50 is the concentration at which growth is held to half of that of the control.
